Counter-ions that a name gives are not always drawn.
Experiments:
[1] = Water solubility of compound 3 free base and its salts; type: physicochemical; settings: for solubility in water: free base, thermogravimetric method
From the text: HCl, phosphoric acid, tartaric acid, acetic acid, D-glucoronic acid and succinic acid were used to prepare pharmaceutically acceptable salts of compound 3.
Solid or crystalline forms or polymorphs of compounds having formula I can be achieved in the free base.

[2] = Solubility of the free base of compound 3 in solvents; type: physicochemical
Protocol: Typically, water solubilities of the compounds in the form of their respective free base, such as compound 3, are low to none. In an exemplary embodiment, the solubility of the free base form of compound 3 in THF, DMSO and DMF was high but the solubility in group 3 solvents, or water for example, was low. For example, acetone is needed to dissolve the free base at 50° C. […] HCl, phosphoric acid, tartaric acid, acetic acid, D-glucoronic acid and succinic acid were used to prepare pharmaceutically acceptable salts of compound 3.

| solubility in water [1] | solubility in water ([1]; listed as free base 3) | solubility in THF, DMSO and DMF ([2]; THF, DMSO and DMF) | solubility in group 3 solvents, or water ([2]; group 3 solvents, or water) | solubility ([1]; salts of compound 3) [µg/mL] | water solubility ([1]; salts of compound 3) [µg/mL] | SMILES |
| --- | --- | --- | --- | --- | --- | --- |
| little to no water solubility | not detectable | high | low |  |  | COc1ccc(-c2ccnc(Nc3ccc(S(=O)(=O)NCCCN(C)C)cc3)n2)cc1F [compound 3, N-(3-(dimethylamino)propyl)-4-(4-(3-fluoro-4-methoxyphenyl)pyrimidin-2-ylamino)benzenesulfonamide] |
|  |  |  |  | 5170 | 5700 | COc1ccc(-c2ccnc(Nc3ccc(S(=O)(=O)NCCCN(C)C)cc3)n2)cc1F [D-glucoronate salt of compound 3] |
